The source of these data is patent US10253069B2, “Compositions and methods for regulating arterial tone” (University of Virginia Patent Foundation, priority 2012, dated 2019).

For the experiment, the target named is T1, eNOS/Hb α interaction (Homo sapiens, UniProt P29474).
T1 construct: purchased Origene
T1 sequence (P29474 2-1203 limits assumed): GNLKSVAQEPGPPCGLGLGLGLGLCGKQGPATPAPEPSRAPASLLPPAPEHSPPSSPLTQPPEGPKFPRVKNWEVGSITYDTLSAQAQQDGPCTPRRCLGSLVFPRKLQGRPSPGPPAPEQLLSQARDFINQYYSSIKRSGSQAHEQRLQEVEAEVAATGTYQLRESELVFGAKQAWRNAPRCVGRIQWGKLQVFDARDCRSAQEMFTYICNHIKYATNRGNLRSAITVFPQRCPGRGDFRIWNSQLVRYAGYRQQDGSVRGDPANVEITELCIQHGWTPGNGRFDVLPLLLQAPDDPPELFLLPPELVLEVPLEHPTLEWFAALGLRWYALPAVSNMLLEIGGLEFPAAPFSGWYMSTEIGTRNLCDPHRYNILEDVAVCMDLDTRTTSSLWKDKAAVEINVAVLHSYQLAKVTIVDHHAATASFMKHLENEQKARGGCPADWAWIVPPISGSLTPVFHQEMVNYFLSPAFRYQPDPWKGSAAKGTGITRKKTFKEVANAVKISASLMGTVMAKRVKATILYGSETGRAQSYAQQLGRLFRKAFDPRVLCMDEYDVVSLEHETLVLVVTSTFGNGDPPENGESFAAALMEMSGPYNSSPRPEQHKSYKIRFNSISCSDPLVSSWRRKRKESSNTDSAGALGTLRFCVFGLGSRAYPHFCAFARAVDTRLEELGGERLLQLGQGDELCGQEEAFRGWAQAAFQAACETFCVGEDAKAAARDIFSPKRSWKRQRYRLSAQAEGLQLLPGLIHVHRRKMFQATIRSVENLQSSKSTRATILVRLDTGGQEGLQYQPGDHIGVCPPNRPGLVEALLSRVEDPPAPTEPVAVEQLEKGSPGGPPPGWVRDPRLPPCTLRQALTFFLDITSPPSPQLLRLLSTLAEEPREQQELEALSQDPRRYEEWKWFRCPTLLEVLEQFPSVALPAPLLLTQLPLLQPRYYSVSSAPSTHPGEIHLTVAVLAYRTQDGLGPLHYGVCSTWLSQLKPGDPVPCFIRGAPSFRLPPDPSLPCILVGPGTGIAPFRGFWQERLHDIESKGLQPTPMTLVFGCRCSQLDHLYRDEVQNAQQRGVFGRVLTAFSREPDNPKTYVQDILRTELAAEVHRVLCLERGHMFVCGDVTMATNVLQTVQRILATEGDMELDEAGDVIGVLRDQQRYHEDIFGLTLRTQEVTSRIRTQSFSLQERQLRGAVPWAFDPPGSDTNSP
The experiment in a line: Purified eNOS and Hb α protein interaction (co-immunoprecipitation, Western blot). The class given is binding. Here is the method:
Purified Flag-eNOS was purchased from Origene and isolated Hb α chains were generated as previously described^9. Co-immunoprecipitation studies were performed by incubating 1 μg of Flag-eNOS with 5 μmol/L of each peptide (tat-only, Scr X or Hb α X) for 30 minutes at 37° C. while shaking. Then, 1 μg of isolated Hb α chains were added to the Flag-eNOS/peptide complex for an additional 30 minutes at 37° C. shaking. Anti-Flag nickel beads, blocked with 1% bovine albumin serum for 1 hour, were added to each condition for an additional hour with agitation. Proteins were washed 3× with PBS for 15 minutes and purified protein-protein complexes were precipitated using a strong magnet. The nickel beads were incubated with 5×SDS PAGE buffer to elute proteins off the beads. Samples were subjected to Western blot analysis to determine peptide-induced disruption of Hb α and eNOS binding.
Background: A western blot detects proteins with antibodies after separation by electrophoresis.

As for “Peptide LSFPTTKTYF (SEQ ID NO:2), first ten amino acids of the Hb α sequence, with HIV-tat tag YGRKKRRQRRR at the N-terminus [Hb α X]”, the “eNOS/Hb α interaction” value (5 μmol/L peptide, Flag-eNOS and purified Hb α chains) is reported as “significantly disrupted”. Besides, the Inhibition of binding (purified Hb α and eNOS protein) was more than 90%.
